Laboratory results taken from patent US20060223996A1, “IL-12 modulatory compounds” (Synta Pharmaceuticals Corp., priority 2004, published 2006).

Legend:
[1] = system: IL-12; test: Human in vitro assay: inhibition of IL-12 production in IFNγ/LPS- or IFNγ/SAC-stimulated human PBMC or THP-1 cells (ELISA); assay type: cell-based; settings: read-out: IC50 Range (representative in vitro IC50 data)
In short: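 Sandwich ELISA for IL-12 (p70, p40) on supernatants collected 18 h after stimulation gave IC50 values; MTS monitored viability. THP-1 cells: IFNγ 100 U/mL priming 22 h, SAC 0.025%. PBMC: IFNγ 30 U/mL for 22 h plus LPS 1 μg/mL, or IFNγ 100 U/mL plus SAC 0.01%. Final DMSO 0.25%.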

[2] = system: IL-12; test: Murine in vitro assay: IL-12 production in IFNγ/SAC-stimulated splenocytes of immunized Balb/c mice (ELISA); assay type: cell-based; settings: Mus musculus, Splenocyte; Balb/c splenocytes stimulated with IFNγ and SAC
Procedure: Murine In Vitro Assay. Balb/c mice (Taconic, Germantown, N.Y.) were immunized with Mycobacterium tuberculosis H37Ra (Difco, Detroit, Mich.). The splenocytes were harvested 5 days and prepared in RPMI medium supplemented with 10% FCS and antibiotics in a flat bottom 96-well plate with 1×10^6 cells/well. The splenocytes were then stimulated with a combination of IFNγ (60 ng/mL) and SAC (0.025%) (LPS (20 μg/mL can be used instead of SAC)) in the presence of a test compound. Cell-free supernatants were taken 24 h later for the measurement of cytokines. The preparation of compound and the assessment of cell viability were carried out as described above. […] Mouse IL-12 p70, IL-10, IL-1β, and TNFα are measured using ELISA kits from Endogen, according to the manufacturer's instructions.

[3] = system: adjuvant arthritis (AA); test: Treatment of adjuvant arthritis in rats; assay type: in vivo, rat; settings: female Lewis rats, oral once a day for 7 days (day 7-14) after MTB induction, vs vehicle
Procedure: Treatment of adjuvant arthritis in rats: Adjuvant arthritis (AA) was induced in female Lewis rats by the intracutaneous injection (base of the tail) of 0.1 mL of a 10 mg/mL bacterial suspension made from ground, heat-killed Mycobacterium tuberculosis (MTB) H37Ra suspended in incomplete Freund's adjuvant. Rats were given Compound 1 or vehicle orally once a day for 7 days (day 7-14), starting day 7 after mycobacterium induction. The development of polyarthritis was monitored daily by macroscopic inspection and assignment of an arthritis index to each animal, during the critical period (days 10 to 25 post-immunization).
The intensity of polyarthritis was scored according to the following scheme: (a) Grade each paw from 0 to 3 based on erythema, swelling, and deformity of the joints: 0 for no erythema or swelling; 0.5 if swelling is detectable in at least one joint; 1 for mild swelling and erythema; 2 for swelling and erythema of both tarsus and carpus; and 3 for ankylosis and bony deformity. Maximum score for all 4 paws was thus 12. […]
Experiments with the AA model were repeated four times. […] The arthritis score used in this model was a reflection of the inflammatory state of the structures monitored and the results therefore show the ability of the test compound to provide relief for this aspect of the pathology.

SMILES | IC50 [1] | also measured
Cc1[nH]c2ccc(NC(=O)c3cc(OCCN)nc(N4CCOCC4)n3)cc2c1C [Compound 273, 6-(2-Amino-ethoxy)-2-morpholin-4-yl-pyrimidine-4-carboxylic acid (2,3-dimethyl-1H-indol-5-yl)-amide] | < 1 µM | IC50 [2]: 1.25 µM
Cc1[nH]c2ccc(NC(=O)c3cc(OCCN4CCOCC4)nc(N4CCOCC4)n3)cc2c1C [Compound 1, 2-Morpholin-4-yl-6-(2-morpholin-4-yl-ethoxy)-pyrimidine-4-carboxylic acid (2,3-dimethyl-1H-indol-5-yl)-amide] | < 1 µM | development of polyarthritis [3]: delayed the development of polyarthritis in a dose-dependent manner; arthritic score (arthritic index) ([3]; FIG. 1): reduced the arthritic score
Cc1[nH]c2ccc(NC(=O)c3cc(OCCN4CCCCC4)nc(N4CCOCC4)n3)cc2c1C [Compound 42, 2-Morpholin-4-yl-6-(2-piperidin-1-yl-ethoxy)-pyrimidine-4-carboxylic acid (2,3-dimethyl-1H-indol-5-yl)-amide] | ≥ 1 µM | –
COC(=O)NCCOc1cc(C(=O)Nc2ccc3[nH]c(C)c(C)c3c2)nc(N2CCOCC2)n1 [Compound 294, {2-[6-(2,3-Dimethyl-1H-indol-5-ylcarbamoyl)-2-morpholin-4-yl-pyrimidin-4-yloxy]-ethyl}-carbamic acid methyl ester] | < 1 µM | –
Cc1cccc(NC(=O)c2cc(OCCc3ccccn3)nc(N3CCOCC3)n2)n1 [Compound 34, 2-Morpholin-4-yl-6-(2-pyridin-2-yl-ethoxy)-pyrimidine-4-carboxylic acid (6-methyl-pyridin-2-yl)-amide] | ≥ 1 µM | –
Cc1cc(NC(=O)Nc2cc(OCCN3CCOCC3)nc(N3CCOCC3)n2)ccc1C(C)C [Compound 329, 1-(4-Isopropyl-3-methyl-phenyl)-3-[2-morpholin-4-yl-6-(2-morpholin-4-yl-ethoxy)-pyrimidin-4-yl]-urea] | < 1 µM | –
Cc1[nH]c2ccc(NC(=O)c3cc(NCC(=O)N4CCC(C(N)=O)CC4)nc(N4CCOCC4)n3)cc2c1C [Compound 99, 6-[2-(4-Carbamoyl-piperidin-1-yl)-2-oxo-ethylamino]-2-morpholin-4-yl-pyrimidine-4-carboxylic acid (2,3-dimethyl-1H-indol-5-yl)-amide] | < 1 µM | –
CCc1c(C)[nH]c2ccc(NC(=O)Nc3cc(N4CCN(c5ccccn5)CC4)nc(N4CCOCC4)n3)cc12 [Compound 269, 1-(3-ethyl-2-methyl-1H-indol-5-yl)-3-(2-morpholino-6-(4-(pyridin-2-yl)piperazin-1-yl)pyrimidin-4-yl)urea] | < 1 µM | –
Cc1[nH]c2ccc(NC(=O)Nc3cc(N4CCN(c5ccccn5)CC4)nc(N4CCOCC4)n3)cc2c1C [Compound 268, 1-(2,3-dimethyl-1H-indol-5-yl)-3-(2-morpholino-6-(4-(pyridin-2-yl)piperazin-1-yl)pyrimidin-4-yl)urea] | < 1 µM | –
CC(=O)N1CCN(c2cc(C(=O)Nc3ccc4[nH]c(C)c(C)c4c3)nc(N3CCOCC3)n2)CC1 [Compound 257, 6-(4-acetylpiperazin-1-yl)-N-(2,3-dimethyl-1H-indol-5-yl)-2-morpholinopyrimidine-4-carboxamide] | < 1 µM | –
O=C(Nc1cc(OCCN2CCOCC2)nc(N2CCOCC2)n1)Nc1nc2ccc(Cl)cc2o1 [Compound 135, 1-(6-Chloro-benzooxazol-2-yl)-3-[2-morpholin-4-yl-6-(2-morpholin-4-yl-ethoxy)-pyrimidin-4-yl]-urea] | < 1 µM | –
COCCN(C)c1cc(C(=O)Nc2cccc(-c3csc(C)n3)c2)nc(N2CCOCC2)n1 [Compound 245, 6-[(2-Methoxy-ethyl)-methyl-amino]-2-morpholin-4-yl-pyrimidine-4-carboxylic acid [3-(2-methyl-thiazol-4-yl)-phenyl]-amide] | < 1 µM | –
CC(C)c1cccc(NC(=O)Nc2cc(OCCN3CCOCC3)nc(N3CCOCC3)n2)c1 [Compound 330, 1-(3-Isopropyl-phenyl)-3-[2-morpholin-4-yl-6-(2-morpholin-4-yl-ethoxy)-pyrimidin-4-yl]-urea] | < 1 µM | –
CC1CCc2ccc(NC(=O)c3cc(OCCN4CCOCC4)nc(N4CCOCC4)n3)cc2N1C (stereo not shown) [Compound 321, 2-Morpholin-4-yl-6-(2-morpholin-4-yl-ethoxy)-pyrimidine-4-carboxylic acid (1,2-dimethyl-1,2,3,4-tetrahydro-quinolin-7-yl)-amide] | ≥ 1 µM | –
O=C(Nc1cc(OCCN2CCOCC2)nc(N2CCOCC2)n1)Nc1nc2ccc(Cl)cc2s1 [Compound 139, 1-(6-Chloro-benzothiazol-2-yl)-3-[2-morpholin-4-yl-6-(2-morpholin-4-yl-ethoxy)-pyrimidin-4-yl]-urea] | < 1 µM | –
Cc1cc(C)cc(NC(=O)c2cc(OCCN3CCOCC3)nc(N3CCOCC3)n2)c1 [Compound 282, 2-Morpholin-4-yl-6-(2-morpholin-4-yl-ethoxy)-pyrimidine-4-carboxylic acid (3,5-dimethyl-phenyl)-amide] | < 1 µM | –
O=C1Cc2cc(NC(=O)c3cc(OCCN4CCOCC4)nc(N4CCOCC4)n3)ccc2N1 [Compound 197, 2-morpholino-6-(2-morpholinoethoxy)-N-(2-oxoindolin-5-yl)pyrimidine-4-carboxamide] | ≥ 1 µM | –
CCN1CCc2ccc(NC(=O)c3cc(OCCN4CCOCC4)nc(N4CCOCC4)n3)cc21 [Compound 221, N-(1-ethylindolin-6-yl)-2-morpholino-6-(2-morpholinoethoxy)pyrimidine-4-carboxamide] | < 1 µM | –
Cc1[nH]c2ccc(NC(=O)c3cc(NCC(=O)N4CCOCC4)nc(N4CCOCC4)n3)cc2c1C [Compound 89, 2-Morpholin-4-yl-6-(2-morpholin-4-yl-2-oxo-ethylamino)-pyrimidine-4-carboxylic acid (2,3-dimethyl-1H-indol-5-yl)-amide] | < 1 µM | –
COCCNc1cc(C(=O)Nc2ccc3[nH]c(C)c(C)c3c2)nc(N2CCOCC2)n1 [Compound 252, N-(2,3-dimethyl-1H-indol-5-yl)-6-(2-methoxyethylamino)-2-morpholinopyrimidine-4-carboxamide] | < 1 µM | –
O=C(Nc1ccc2ncccc2c1)c1cc(OCCc2ccccn2)nc(N2CCOCC2)n1 [Compound 38, 2-Morpholin-4-yl-6-(2-pyridin-2-yl-ethoxy)-pyrimidine-4-carboxylic acid quinolin-6-ylamide] | ≥ 1 µM | –
COCCN(C)c1cc(C(=O)Nc2cccc(C(F)(F)F)c2)nc(N2CCOCC2)n1 [Compound 209, 6-((2-methoxyethyl)(methyl)amino)-2-morpholino-N-(3-(trifluoromethyl)phenyl)pyrimidine-4-carboxamide] | ≥ 1 µM | –
COCCN(C)c1cc(C(=O)Nc2cc(C)cc(C)n2)nc(N2CCOCC2)n1 [Compound 238, 6-[(2-Methoxy-ethyl)-methyl-amino]-2-morpholin-4-yl-pyrimidine-4-carboxylic acid (4,6-dimethyl-pyridin-2-yl)-amide] | ≥ 1 µM | –
Cc1cccc(NC(=O)C(=O)Nc2cc(OCCc3ccccn3)nc(N3CCOCC3)n2)c1 [Compound 85, N-[2-Morpholin-4-yl-6-(2-pyridin-2-yl-ethoxy)-pyrimidin-4-yl]-N′-m-tolyl-oxalamide] | ≥ 1 µM | –
Cc1c(C)n(C)c2ccc(NC(=O)c3cc(N4CCOCC4)cc(N4CCOCC4)n3)cc12 [Compound 147, 4,6-Di-morpholin-4-yl-pyridine-2-carboxylic acid (1,2,3-trimethyl-1H-indol-5-yl)-amide] | < 1 µM | –
